# According to patent publication US20150140015A1, “METHODS AND PHARMACEUTICAL COMPOSITIONS FOR THE TREATMENT OF PANCREATIC CANCER” (INSERM (Institut National de la Sante et de la Recherche …, priority 2013, published 2015):
# “Also recorded” adds a separate entry of the source.
# How the values were obtained:
# [1] = tested on: HPAF-II cells expressing recombinant OX1R; assay: Quantification of apoptotic cells by annexin V-PE labeling in recombinant OX1R/HPAF-II cells; type: cell-based, human; conditions: 1 μM orexin-A, 48 hr; recombinant HPAF-II expressing OX1R
# Description: FIGS. 5A and B. Effect of orexin-A on apoptosis in OX1R expressing recombinant OX1R/HPAF-II cells. A, Parental HPAF-II and recombinant OX1R/HPAF-II cells were challenged with (black bars) or without (white bars) 1 μM orexin-A for 48 hr in the absence or presence of the SHP-2 protein tyrosine phosphatase inhibitor, NSC-87877 (50 μM). Apoptosis was measured by determination of annexin V-PE binding. Results are expressed as the percentage of apoptotic cells, and are the means±SE of three separate experiments. ***p<0.001; ns, non-significant; B, paraformaldehyde-fixed HPAF-II cells and recombinant OX1R/HPAF-II cells were challenged with or without (Basal) 1 μM orexin-A for 48 hr. Indirect immunostaining of activated caspase-3 in parental HPAF-II cells (left panels) and recombinant OX1R/HPAF-II cells (right panels) in the presence (bottom panels) or tabsence (top panels) of orexin-A is illustrated in B. […]
# AsPC-1, SW 1990, HPAF-II and HPAF-II/hOX1R cells (seeded at 5×10^4 cells/well) were grown in 24-well plates for 24 hr under the culture conditions described above. […] Results are expressed as the percentage of apoptotic phycoerythrin-labelled Annexin V (Annexin V-PE) positive cells and are the means of 3 independent analyses.
# [2] = tested on: AsPC-1 cells xenografted in nude mice; assay: Tumorigenicity assay: AsPC-1 cells xenografted in nude mice; type: in vivo; conditions: for decrease of tumor volume: 30-day treatment; for activated caspase-3 immunostaining in xenografted AsPC-1 tumors: orexin-A 1 μmoles/Kg daily i.p., 30 days
# Description: FIGS. 6A and B. Effect of daily inoculation of orexin-A on the growth of tumors developed by xenografting human PDCA cells in nude mice. AsPC-1 cells were inoculated in the flank of nude mice at day 0. Mice were injected daily intraperitoneally with 100 μl of orexin-A solutions starting at day 0 (◯) or day 14 (▴) or with 100 μl of PBS ([…]) for controls. A, the daily treatment corresponded to 1 μmoles of orexin-A/Kg. Inset represents the tumor weight measured at the end of the experiment after the mice were sacrificed; B, mice received 0.01, 0.1, 1 or 10 μmoles of orexin-A/kg. After 30 days of treatment, mice were sacrificed and tumor volume and weight were then recorded. The development of tumors was followed by caliper measurement. Data are the means±SE of 6 tumors in each group. *** p<0.01 versus control.
# FIG. 7A-F. Indirect immunostaining of activated caspase-3 in xenografted AsPC-1 tumors resected from nude mice. Paraformaldehyde-fixed xenografted AsPC-1 tumors from nude mice treated daily (B, D and F) by intraperitoneal injections with 1 μmoles/Kg orexin-A or not (A, C and E). […] OX1R immunostaining localisation was similar under control and orexin-A treatment conditions.
# Control mice received PBS.
# After dewaxing, rehydrating tumor paraffin sections, and antigen retrieval by pretreatment with high temperature at pH 9, immunohistochemical procedures were carried out using an automated immunohistochemical stainer according to the manufacturer's guidelines (Bond-Max slide stainer, Menarini, Leica Microsystems). For immunohistochemistry on cell lines, cells in pellets were fixed in formalin, embedded in cell blocks (Shandon Cytoblock; Thermo Scientific; USA) and cut into 3 μm sections. OX1R evaluation was performed in human PDAC, included in TMA, in xenografted tumors and in cell lines (AsPC-1, HPAF-II and HPAF-II/hOX1R). After antigen retrieval, 3 μm cells or tissue sections were incubated for 30 minutes with a polyclonal anti-OX1R antibody (My Bio Source; polyclonal goat; 1/300), rinsed, and then incubated with a biotinylated secondary rabbit anti-goat antibody (Vector BA-500; 1/400). Sections were rinsed and incubated with Streptavidin (TrekAvidin-HRP; Biocare Medical) and DAB ultraview detection kit (Bond Polymer Refine detection; DS9800; Leica Microsystems). Substitution of the primary antibody with PBS was used as a negative control. OX1R immunostaining was evaluated by two investigators (TV and AC) by calculating a score (0-300) obtained by multiplying the intensity (negative, 0; weak, 1; moderate, 2; and strong, 3) by the percentage of stained cells. The pattern of expression (cytoplasmic, membranous, and nuclear) was also recorded, and a mean score was calculated for each tumor. Internal positive controls consisted of normal pancreatic islets while the HEK/hOX1R cell line served as an external positive control. Specificity of the immunostaining was verified by incubation of OX1R antibody with its homologous immunogenic peptide or omission of the primary antibody. Apoptosis determination was performed in tumor cell lines (AsPC-1, HPAF-II and HPAF-II/hOX1R) and resected xenografts, treated or not with orexin-A. Three μm cell sections were immunolabelled for activated caspase-3 after antigen retrieval (ABGENT; cleaved caspase 3; polyclonal rabbit; 1/100) using a detection kit (Bond Polymer Refine detection; DS9800; Leica Microsystems). Substitution of the primary antibody with PBS was used as a negative control. External positive controls consisted of normal lymph nodes. Cleaved caspase-3 immunostaining was determined by calculating the percentage of tumor cells stained in 10 fields of xenografted tumor cells, each field comprising 500 tumor cells.
substance,measurement,setting,value
"orexin-A: 33 amino acid hypothalamic neuropeptide, OX1R agonist, SEQ ID NO:2; peptide from GL Biochemicals",annexin-V positive apoptotic cells,[1],17.8%
same,decrease in tumor volume as compared to untreated mice,[2]; 1 μmol/kg daily i.p. beginning the day cells were xenografted,48.8%
same,volume of established tumors,"[2]; 1 μmol/kg daily, started 14 days after cell inoculation",rapidly and strongly reduced
same,"weight of tumors, treatment from day 0 versus from day 14","[2]; 1 μmol/kg daily, tumors resected after sacrifice",No differences
same,tumoral cell death (Hemalum Eosin Safran staining),[2]; 1 μmoles/Kg orexin-A daily i.p.,induced tumoral cell death
same,decrease of tumor volume,[2]; 0.01 moles orexin-A/kg (so in the source),34.4%
same,decrease of tumor volume,[2]; 0.1 moles orexin-A/kg (so in the source),30.6%
same,decrease of tumor volume,[2]; 1 moles orexin-A/kg (so in the source),46.7%
same,decrease of tumor volume,[2]; 10 moles orexin-A/kg (so in the source),52.8%
same,decline of tumor progression,"[2]; Example 1, Orexin-A injection",49%
same,activated caspase-3 immunostaining in xenografted AsPC-1 tumors,[2],intense staining
same,activated caspase-3 immunostaining in xenografted AsPC-1 tumors,[2]; listed as Orexin-A,strong immunostaining; also recorded: Induction of apoptosis was observed
